Results on two compounds are retold here after patent publication US20100286145A1, “ISOPHTHALAMIDE DERIVATIVES INHIBITING BETA-SECRETASE ACTIVITY” (CoMentis, Inc., priority 2007, published 2010).

SMILES strings stand for the structures.

Series [1] in a line: Brain pharmacokinetic analysis / brain penetration in rats, i.v. bolus. The format is in vivo. The source says:
(§1) Quantitative analysis was used to determine the concentration of a test inhibitor, N1-((2S,3R)-4-((5-(2-fluoropropan-2-yl)pyridin-3-yl)methylamino)-3-hydroxy-1-phenylbutan-2-yl)-N3-methyl-N3-((4-methylthiazol-2-yl)methyl)isophthalamide, in biological tissues. The test inhibitor was extracted from a variety of biological samples followed by its selective identification and quantification from a standard curve prepared in the same extracted biological matrix. Briefly, this extraction is accomplished through a simple protein precipitation technique performed on collected plasma. The resultant extractions are then quantified using the LC/MS protocol as detailed herein.
(§2) Quantitative analysis was performed through LC/MS analysis. The system was composed of an Eksigent Express LC 100 microflow HPLC system, coupled with an Eksigent CXP C-8AR 0.3*50 mm, or other suitable column, and a Thermo TSQuantum Classic triple quadrupole mass spectrometer running in positive ion, SRM mode. The HPLC buffers were 99.5% H2O, 0.5% formic acid (buffer A) and 99.5% acetonitrile, 0.5% formic acid (buffer B). Typically, a 10 μl aliquot was injected onto the column followed by a 1.5 minute chromatographic analysis. This analysis was conducted at a 20 μl/min flow rate, and composed of a gradient from 15% B to 90% B followed by a 98% B flush to facilitate compound separation and quantitation. Each sample was analyzed in duplicate, with QC, and system blank samples run after every sample set. The column effluent was analyzed in real time by MS/MS to allow the positive identification and quantification of the test inhibitor by compound fingerprint analysis. This was accomplished by allowing only species of 586.3 Da to pass through the first quadrupole, followed by collision induced decay in quadrupole two and scanning analysis of selected daughter ions specific to the test compound in quadrupole three. The collected data was analyzed using the LCQuan software package from Thermo Electron, to determine the levels of the test compound in the samples.
Male Sprague-Dawley Rats (200-400 g) were obtained from Taconic Farms (Hudson, N.Y.) with a pre-implanted jugular vein cannula (JVC) for blood sampling. A solution (5 mg/mL, free base equivalents) of the test inhibitor, N1-((2S,3R)-4-((5-(2-fluoropropan-2-yl)pyridin-3-yl)methylamino)-3-hydroxy-1-phenylbutan-2-yl)-N3-methyl-N3-((4-methylthiazol-2-yl)methyl)isophthalamide mono-citrate salt, was prepared freshly in 35% hydroxypropyl-β-cyclodextrin (HPBCD). Intravenous bolus injection was conducted using a 25 gauge needle via the tail vein. Animals were supplied with water and a commercial rodent diet ad libitum prior to and during the study.
Blood samples (˜100 μl at each time point) for plasma pharmacokinetic (PK) analysis were collected from the JVC cannula into lithium-heparin tubes at 2 min, 5 min, 15 min, 30 min, 45 min, 1 hr, 2 hr, 4 hr, 6 hr and 24 hr post-dose (Group A in Table 2). For compartmental PK analysis, blood and brain were collected from animals in Group B (Table 2) at 15 min, 1 hr, 2 hr, 4 hr, and 6 hr post-dose, with three rats assigned to each time point. Animals were deeply anesthetized with isoflurane and blood collected by cardiocentesis. Plasma separated by centrifugation at 6000 rpm×10 min. Brain hemispheres were subsequently harvested and snap frozen in liquid nitrogen. Plasma and brain samples were subsequently stored at −70° C.
Bioanalysis of the test inhibitor from plasma and brain extracts was performed according to standard procedures. Briefly, 20 μl of plasma was extracted with 100 μl of acetonitrile using a 96-well Solvinert filter plate (Millipore). Samples were subjected to LC/MS/MS analysis using an Eksigent Express LC 100 microflow HPLC system, coupled with an Eksigent CXP C-18AR 0.3*50 mm column, and a Thermo TSQuantum Classic triple quadrupole mass spectrometer running in positive ion, SRM mode. […]

Series [2] in a line: Plasma pharmacokinetic analysis in rats, i.v. bolus. To be noted: male, Sprague-Dawley, rat. The format is in vivo.
Description: as §1
Whole blood from animals dosed with the test inhibitor was collected in lithium heparin anti-coagulant tubes. These samples were centrifuged to allow the subsequent collection of plasma, with plasma aliquots immediately stored at −70° C. For quantitative analysis, the samples were then thawed on ice and a 20 μl aliquot was added to a well of a multi-screen Solvinert filter plate (Millipore). A five-fold volume of acetonitrile was added to each sample to facilitate protein precipitation, the samples were multiply aspirated or shaken to mix and then centrifuged at 4500 rpm for 15 minutes to filter the samples, with the supernatant being collected in an underlying 96 well receiving plate. The receptor plate was then dried via speed vacuum at 40° C. The sample was reconstituted by multiple aspirations with a reconstitution buffer composed of 10% acetonitrile, 10% DMSO, 80% H2O with an internal standard added at a concentration of 100 ng/ml. Standards of the test inhibitor were prepared in 100% DMSO for the generation of a standard curve for sample quantification. The samples range from 1 to 100000 ng/ml, as required for the analysis. A 1 μl aliquot of standard was added per 10 μl of blank plasma to construct a calibration curve, 0.1 ng/ml to 10000 ng/ml, prior to the protein precipitation step again as required for analysis. Quality control samples were prepared identically, from an alternate standard source and a single sample was prepared with an identical volume spike added post precipitation and collection to monitor the extraction efficiency. This method was applicable to plasma from all species currently being tested. Solvinert filter wells were pre-washed with 100 μl of 10% MeOH/90% ACN followed by centrifugation at 4500 RPM for 10 min prior to use.
as §2
Male Sprague-Dawley Rats (200-400 g) were obtained from Taconic Farms (Hudson, N.Y.) with a pre-implanted jugular vein cannula (JVC) for blood sampling. […]

The mark [3] stands for this setting: male, Sprague-Dawley, rat, in vivo, iv, 10 mg/kg.

Usually MRT last stands for the average time that molecules of a dose stay in the body. `Cc1csc(CN(C)C(=O)c2cccc(C(=O)N[C@@H](Cc3ccccc3)[C@H](O)CNCc3cncc(C(C)(C)F)c3)c2)n1` [test inhibitor, N1-((2S,3R)-4-((5-(2-fluoropropan-2-yl)pyridin-3-yl)methylamino)-3-hydroxy-1-phenylbutan-2-yl)-N3-methyl-N3-((4-methylthiazol-2-yl)methyl)isophthalamide]: in series [1] (setting [3]), the “Brain Terminal phase t1/2” value worked out at 34.3 h; the MRT last turned out to be 12 h; the “Penetration (%), brain relative to plasma AUC24 hr” value is on record as 46.8%; the concentration at 0.25 h is 160 ng/mL. In series [1] (setting [3]), this compound showed a concentration at 1 h of 71.1 ng/mL, a concentration at 2 h of 72.4 ng/mL, a concentration at 4 h of 28 ng/mL and a concentration at 6 h of 42.7 ng/mL. In series [1] (setting [3]), the concentration at 24 h came out at 52.5 ng/mL. In addition, in series [1] (male, Sprague-Dawley, rat, in vivo, iv, 10 mg/kg, Brain Terminal phase t1/2), the half-life was 34 h. In series [1] (male, Sprague-Dawley, rat, in vivo, iv, rats, single dose i.v. 10 mg/kg, read-out: AUC24 hr, Brain), the AUC(0-t) was found to be 1210 ng·h/mL. In series [1] (rats, i.v. bolus 10 mg/kg), the “Brain AUC24 hr” value was 1206.2 ng·h/mL. In series [2] (in vivo, iv, 10 mg/kg), this compound registered a concentration at 0.25 h of 2500 ng/mL, a concentration at 1 h of 548 ng/mL, a concentration at 2 h of 130 ng/mL and a concentration at 4 h of 31.1 ng/mL. In series [2] (in vivo, iv, 10 mg/kg), the concentration at 6 h stood at 5.7 ng/mL and the concentration at 24 h was 2.2 ng/mL. Besides, the half-life in series [2] (plasma, iv, 10 mg/kg, rats, i.v. bolus 10 mg/kg, read-out: Plasma Terminal phase t1/2 (converted)) is 13.1 h. For the same compound, the half-life in series [2] (plasma, iv, 10 mg/kg, rats, single 10 mg/kg intravenous dose, read-out: half-life in plasma) fell in the range of 6 to 13 h. Besides, in series [2] (plasma, iv, rats, single dose i.v. 10 mg/kg, read-out: AUC24 hr, Plasma), the AUC(0-t) was determined as 2580 ng·h/mL.

One may read the Kp as tissue or fluid exposure divided by exposure in the circulation. By AUC is commonly meant the area under the concentration-time curve, a measure of exposure. `Cc1csc(CN(C)C(=O)c2cccc(C(=O)N[C@@H](Cc3ccccc3)[C@H](O)CNCc3cncc(C(C)(C)F)c3)c2)n1` [N1-((2S,3R)-4-((5-(2-fluoropropan-2-yl)pyridin-3-yl)methylamino)-3-hydroxy-1-phenylbutan-2-yl)-N3-methyl-N3-((4-methylthiazol-2-yl)methyl)isophthalamide] returned a Kp in series [1] (male, Sprague-Dawley, rat, in vivo, iv, 10 mg/kg, Penetration (%), brain relative to plasma AUC24 hr) of 0.468. In series [2] (plasma, rats, single 10 mg/kg intravenous dose, read-out: 24 hr plasma AUC), the AUC was 2580 ng·h/mL.
